Laboratory results taken from patent US12404301B2, “Polypeptide having anti-aging activity, and application thereof” (NANJING ANJI BIOLOGICAL TECHNOLOGY CO., LTD., priority 2020, dated 2025).

Tested on: Wild-type Caenorhabditis elegans
Assay: Experiment on the lifespan of Caenorhabditis elegans
Type: in vivo
Conditions: for longest lifespan of the nematodes / Median survival time (time to half death) / day when death occurs compared with the control group / time to half death compared with the control group (significance) / longest lifespan, days longer than that of the control group / time to half death longer than in the control group: 10 nM; for Median survival time (time to half death): Kaplan-Meier, Median ± SE; for day when death occurs compared with the control group / time to half death compared with the control group (significance): in words; for longest lifespan, days longer than that of the control group / time to half death longer than in the control group: vs control group
Description: Synchronization of Caenorhabditis elegans: The NGM plate with a moderate nematode density was selected. The larvae at the L4 stage were picked with a pick needle for about 20 in total and transferred into the blank NGM plate. After they developed into adults and laid the first batch of eggs, all the adults were picked out. About 12 hours later, the eggs hatched into larvae, to obtain the synchronized larvae at the L1 stage. Preliminary preparation for the experiment on the lifespan of Caenorhabditis elegans: The NGM was washed with 1 mL of M9 buffer. The resulting buffer containing the larvae at the L1 stage was collected into an EP tube, placed in a chromatographic cabinet at 4° C. for 5 min, and centrifuged at 1500× g/4° C. for 3 min. The supernatant was removed. After 100 μL of buffer was resuspended, the nematodes were counted under a microscope, and the nematodes were diluted to a concentration of 30 worms/10 μL. 10 μL of diluted nematodes were added into the NGM plate inoculated with E. coli OP50, and the nematodes were counted under the microscope to ensure that there were about 30 nematodes. The NGM plate was placed in a constant temperature incubator to culture. Experiment on the lifespan of Caenorhabditis elegans: After the nematodes at the L1 stage developed to the L4 stage, 100 μL of 15.6 μg/mL 5-FUDR was added for inhibition of Caenorhabditis elegans from oviposition. After the nematodes developed to adults, the dosing started, and the nematodes were divided into a control group and a 10 nM dose group, which was recorded as day 1 of the lifespan experiment. After that, the dosing was carried out every day, the numbers of nematodes that survived, died, and unexpectedly died were observed and recorded every day, and the status of the nematodes was observed and recorded, until the last nematode died. […] The dead nematodes need to be picked out of the plate. The E. coli OP50 needs to be added in time when exhausted. Kaplan-Meier statistical analysis was carried out on the data, and the data results were expressed as Median±SE. Compared with the control group, *P<0.05 represents a significant difference, and **P<0.01 represents a very significant difference.

Question: Which “longest lifespan of the nematodes” value does the source give for PPTTKFAA [WD1] here?
Answer: 31 days

Question: What about the “Median survival time (time to half death)” value of the same substance?
Answer: 21.000 days

Question: What about the “day when death occurs compared with the control group” value of the same substance?
Answer: no significant difference

Question: What about the “time to half death compared with the control group (significance)” value of the same substance?
Answer: does not have a significant difference

Question: And the “longest lifespan, days longer than that of the control group” value?
Answer: 3 days

Question: What about the “time to half death longer than in the control group” value of the same substance?
Answer: 1 days

Question: What about the “Number of remaining nematodes” value (day 0, 10 nM) of the same substance?
Answer: 29

Question: What about the “Number of remaining nematodes” value (day 1, 10 nM) of the same substance?
Answer: 29

Question: And the “Number of remaining nematodes” value (day 2, 10 nM)?
Answer: 29

Question: What about the “Number of remaining nematodes” value (day 3, 10 nM) of the same substance?
Answer: 29

Question: What about the “Number of remaining nematodes” value (day 4, 10 nM) of the same substance?
Answer: 29

Question: What about the “Number of remaining nematodes” value (day 5, 10 nM) of the same substance?
Answer: 29

Question: And the “Number of remaining nematodes” value (day 6, 10 nM)?
Answer: 29

Question: And the “Number of remaining nematodes” value (day 7, 10 nM)?
Answer: 29

Question: What about the “Number of remaining nematodes” value (day 8, 10 nM) of the same substance?
Answer: 29

Question: And the “Number of remaining nematodes” value (day 9, 10 nM)?
Answer: 29

Question: And the “Number of remaining nematodes” value (day 10, 10 nM)?
Answer: 28

Question: And the “Number of remaining nematodes” value (day 11, 10 nM)?
Answer: 27

Question: What about the “Number of remaining nematodes” value (day 12, 10 nM) of the same substance?
Answer: 24

Question: What about the “Number of remaining nematodes” value (day 13, 10 nM) of the same substance?
Answer: 24

Question: What about the “Number of remaining nematodes” value (day 14, 10 nM) of the same substance?
Answer: 22

Question: And the “Number of remaining nematodes” value (day 15, 10 nM)?
Answer: 20

Question: And the “Number of remaining nematodes” value (day 16, 10 nM)?
Answer: 20

Question: And the “Number of remaining nematodes” value (day 17, 10 nM)?
Answer: 19

Question: And the “Number of remaining nematodes” value (day 18, 10 nM)?
Answer: 19

Question: And the “Number of remaining nematodes” value (day 19, 10 nM)?
Answer: 16

Question: What about the “Number of remaining nematodes” value (day 20, 10 nM) of the same substance?
Answer: 15

Question: What about the “Number of remaining nematodes” value (day 21, 10 nM) of the same substance?
Answer: 14

Question: And the “Number of remaining nematodes” value (day 22, 10 nM)?
Answer: 12

Question: What about the “Number of remaining nematodes” value (day 23, 10 nM) of the same substance?
Answer: 10

Question: And the “Number of remaining nematodes” value (day 24, 10 nM)?
Answer: 9

Question: And the “Number of remaining nematodes” value (day 25, 10 nM)?
Answer: 8

Question: And the “Number of remaining nematodes” value (day 26, 10 nM)?
Answer: 6

Question: What about the “Number of remaining nematodes” value (day 27, 10 nM) of the same substance?
Answer: 5

Question: And the “Number of remaining nematodes” value (day 28, 10 nM)?
Answer: 4

Question: And the “Number of remaining nematodes” value (day 29, 10 nM)?
Answer: 1

Question: What about the “Number of remaining nematodes” value (day 30, 10 nM) of the same substance?
Answer: 1

Question: What about the “Number of remaining nematodes” value (day 31, 10 nM) of the same substance?
Answer: 1

Question: What about the “Number of remaining nematodes” value (day 32, 10 nM) of the same substance?
Answer: 0

Question: And the “Number of remaining nematodes” value (day 33, 10 nM)?
Answer: 0

Question: What about the “Number of remaining nematodes” value (day 34, 10 nM) of the same substance?
Answer: 0

Question: And the “Number of remaining nematodes” value (day 35, 10 nM)?
Answer: 0

Question: And the “Number of remaining nematodes” value (day 36, 10 nM)?
Answer: 0

Question: What about the “Number of remaining nematodes” value (day 37, 10 nM) of the same substance?
Answer: 0

Question: What about the “Number of remaining nematodes” value (day 38, 10 nM) of the same substance?
Answer: 0

Question: Which results are given for PTTKFAA [WD2]?
Answer: longest lifespan of the nematodes: 32 days; Median survival time (time to half death): 21.000 days; day when death occurs compared with the control group: no significant difference; time to half death compared with the control group (significance): does not have a significant difference; longest lifespan, days longer than that of the control group: 4 days; time to half death longer than in the control group: 1 days; Number of remaining nematodes (day 0, 10 nM): 26; Number of remaining nematodes (day 1, 10 nM): 26; Number of remaining nematodes (day 2, 10 nM): 26; Number of remaining nematodes (day 3, 10 nM): 26; Number of remaining nematodes (day 4, 10 nM): 26; Number of remaining nematodes (day 5, 10 nM): 26; Number of remaining nematodes (day 6, 10 nM): 26; Number of remaining nematodes (day 7, 10 nM): 26; Number of remaining nematodes (day 8, 10 nM): 26; Number of remaining nematodes (day 9, 10 nM): 26; Number of remaining nematodes (day 10, 10 nM): 26; Number of remaining nematodes (day 11, 10 nM): 25; Number of remaining nematodes (day 12, 10 nM): 23; Number of remaining nematodes (day 13, 10 nM): 23; Number of remaining nematodes (day 14, 10 nM): 22; Number of remaining nematodes (day 15, 10 nM): 21; Number of remaining nematodes (day 16, 10 nM): 21; Number of remaining nematodes (day 17, 10 nM): 20; Number of remaining nematodes (day 18, 10 nM): 18; Number of remaining nematodes (day 19, 10 nM): 16; Number of remaining nematodes (day 20, 10 nM): 14; Number of remaining nematodes (day 21, 10 nM): 13; Number of remaining nematodes (day 22, 10 nM): 11; Number of remaining nematodes (day 23, 10 nM): 9; Number of remaining nematodes (day 24, 10 nM): 9; Number of remaining nematodes (day 25, 10 nM): 7; Number of remaining nematodes (day 26, 10 nM): 7; Number of remaining nematodes (day 27, 10 nM): 5; Number of remaining nematodes (day 28, 10 nM): 3; Number of remaining nematodes (day 29, 10 nM): 2; Number of remaining nematodes (day 30, 10 nM): 1; Number of remaining nematodes (day 31, 10 nM): 1; Number of remaining nematodes (day 32, 10 nM): 1; Number of remaining nematodes (day 33, 10 nM): 0; Number of remaining nematodes (day 34, 10 nM): 0; Number of remaining nematodes (day 35, 10 nM): 0; Number of remaining nematodes (day 36, 10 nM): 0; Number of remaining nematodes (day 37, 10 nM): 0; Number of remaining nematodes (day 38, 10 nM): 0

Question: Which results are given for TTKFAA [WD3]?
Answer: longest lifespan of the nematodes: 33 days; Median survival time (time to half death): 21.000 days; day when death occurs compared with the control group: no significant difference; time to half death compared with the control group (significance): does not have a significant difference; longest lifespan, days longer than that of the control group: 5 days; time to half death longer than in the control group: 1 days; Number of remaining nematodes (day 0, 10 nM): 28; Number of remaining nematodes (day 1, 10 nM): 28; Number of remaining nematodes (day 2, 10 nM): 28; Number of remaining nematodes (day 3, 10 nM): 28; Number of remaining nematodes (day 4, 10 nM): 28; Number of remaining nematodes (day 5, 10 nM): 28; Number of remaining nematodes (day 6, 10 nM): 28; Number of remaining nematodes (day 7, 10 nM): 28; Number of remaining nematodes (day 8, 10 nM): 28; Number of remaining nematodes (day 9, 10 nM): 28; Number of remaining nematodes (day 10, 10 nM): 28; Number of remaining nematodes (day 11, 10 nM): 27; Number of remaining nematodes (day 12, 10 nM): 27; Number of remaining nematodes (day 13, 10 nM): 27; Number of remaining nematodes (day 14, 10 nM): 22; Number of remaining nematodes (day 15, 10 nM): 20; Number of remaining nematodes (day 16, 10 nM): 20; Number of remaining nematodes (day 17, 10 nM): 20; Number of remaining nematodes (day 18, 10 nM): 20; Number of remaining nematodes (day 19, 10 nM): 17; Number of remaining nematodes (day 20, 10 nM): 15; Number of remaining nematodes (day 21, 10 nM): 14; Number of remaining nematodes (day 22, 10 nM): 11; Number of remaining nematodes (day 23, 10 nM): 10; Number of remaining nematodes (day 24, 10 nM): 9; Number of remaining nematodes (day 25, 10 nM): 6; Number of remaining nematodes (day 26, 10 nM): 6; Number of remaining nematodes (day 27, 10 nM): 5; Number of remaining nematodes (day 28, 10 nM): 4; Number of remaining nematodes (day 29, 10 nM): 2; Number of remaining nematodes (day 30, 10 nM): 1; Number of remaining nematodes (day 31, 10 nM): 1; Number of remaining nematodes (day 32, 10 nM): 1; Number of remaining nematodes (day 33, 10 nM): 1; Number of remaining nematodes (day 34, 10 nM): 0; Number of remaining nematodes (day 35, 10 nM): 0; Number of remaining nematodes (day 36, 10 nM): 0; Number of remaining nematodes (day 37, 10 nM): 0; Number of remaining nematodes (day 38, 10 nM): 0
